This is an account of results in patent US20230322706A1, “NOVEL BIARYL DERIVATIVE USEFUL AS DIACYLGLYCEROL ACYLTRANSFERASE 2 INHIBITOR, AND USE THEREOF” (LG CHEM, LTD., priority 2020, published 2023).

pIC50: −log10 of the molar value.

The test has as its target human DGAT2 (Homo sapiens (Human), UniProt Q96PD7). The experiment in a line: Measurement of inhibitory effect against DGAT2 enzyme activity (SPA, Phospholipid FlashPlate, [14C]-TG production). As to conditions: recombinant human DGAT2 membrane protein from Sf-21 cells; inhibition of [14C]-TG production; 37° C. It counts as biochemical. An excerpt:
Experimental Example: Measurement of Inhibitory Effect Against DGAT2 Enzyme Activity
1. Preparation of DGAT2 Expression Vector
In order to prepare the pBacPAK9-DGAT2, which is DGAT2 expression vector, the human DGAT2 gene amplified by polymerase chain reaction (PCR) was cloned into the EcoR1 and Xho1 sites of the pBacPAK9 (clonctech) vector. The nucleotide sequence of the primers used in PCR was the forward primer 5′ […] and the reverse primer 5′ […]. The composition of the reaction solution was to contain 50 ng of cDNA clone (OriGene), 200 μM of dATP, dCTP, dTTP, dGTP, 200 nM of each primer, 1 unit of Tag DNA Polymerase (Toyobo), 1x PCR buffer, and the final volume was adjusted to 20 μl. The reaction conditions were denatured at 95° C. for 5 minutes, followed by 30 times of 94° C. for 20 seconds, 60° C. for 20 seconds, and 72° C. for 90 seconds, followed by further reaction at 72° C. for 7 minutes.
2. DGAT2 Expression and Preparation of Membrane Protein
Recombinant human DGAT2 protein was expressed in Sf-21 cells, which are insect cells, by using the BacPack baculovirus expression system (Clontech). The brief manufacturing process is as follows. First, the pBacPAK9-DGAT2 expression vector was transfected with BacPAK6 virus DNA (Bsu36I digest) into sf21 cells using Bacfectin to prepare a recombinant DGAT2 expressing baculovirus. The thus prepared baculovirus was infected with Sf-21 cells at 10 MOI (multiplicity of infection), and after 72 hours, infected insect cells were collected and membrane proteins were isolated. For membrane protein separation, the cell pellet was dissolved in a sucrose solution containing 250 mM sucrose, 10 mM Tris (pH 7.4), and 1 mM ethylenediamine-tetraacetic acid (EDTA), and then homogenized by using a dounce homogenizer, and the supernatant was taken by centrifuging at 600×g for 15 minutes, and centrifuged at 100,000×g for 1 hour to discard the supernatant, and the remaining pellet was resuspended in 20 mM HEPES buffer (pH 7.4). The prepared DGAT2 overexpressing membrane protein was dispensed in 100 μl and stored at −80° C. until use. Protein concentration was quantified by using the BCA Protein Assay Kit (Thermo Scientific).
3. Measurement of Inhibitory Effect Against DGAT2 Enzyme Activity
In vitro DGAT2 analysis was performed using a Phospholipid Flash Plate (PerkinElmer) based on the principle of SPA (Scintilation Proximity Assay). First, DGAT2 inhibition compounds serially diluted 5 times from 3 nM to 10 μM (final concentration, 1% DMSO) were mixed in a buffer solution containing 2 μg DGAT2-membrane protein and 20 mM HEPES, 20 mM MgCl2, 1 mg/mL BSA, 50 μM 1,2 sn-oleoyl glycerol (Sigma), put in a 96-well flash plate (FlashPlate) and reacted at 37° C. for 20 minutes, and then 1 μM [14C] ole oil CoA (PerkinElmer, NEC651050UC) was added to be a final volume of 100 μL and further reacted at 37° C. for 15 minutes. After the enzymatic reaction was completed, 100 μL of isopropanol was added, the plate was sealed with a film, and the plate was shaken slowly in a plate shaker. The next day, the amplified scintillation signal (cpm) in Topcounter (Packard) was measured to measure the degree of production of [14C]-labeled triacyl glycerol (TG) as a reaction product. The measured value when the compound was not treated was used as a positive control, and the measured value of the compound treated group was calculated as a relative % to measure the inhibition effect of the compound on TG production. The IC50 value, which is the concentration of the compound that inhibits TG production by 50%, was determined by treating the response value according to the compound concentration with a nonlinear regression curve using PRISM (Graphpad Inc.).

human DGAT2, sequence (Q96PD7 whole entry): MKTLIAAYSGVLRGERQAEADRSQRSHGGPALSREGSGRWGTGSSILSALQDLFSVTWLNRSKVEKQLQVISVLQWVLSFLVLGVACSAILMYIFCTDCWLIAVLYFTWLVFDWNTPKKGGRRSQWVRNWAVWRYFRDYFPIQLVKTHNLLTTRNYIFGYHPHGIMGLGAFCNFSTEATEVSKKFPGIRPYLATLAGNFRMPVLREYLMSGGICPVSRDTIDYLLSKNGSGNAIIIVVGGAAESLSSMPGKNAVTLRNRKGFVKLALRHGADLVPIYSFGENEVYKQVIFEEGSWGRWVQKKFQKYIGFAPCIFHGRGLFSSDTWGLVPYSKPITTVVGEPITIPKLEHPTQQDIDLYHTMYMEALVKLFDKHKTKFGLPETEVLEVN

What is called pIC50 is the negative decadic logarithm of the IC50, by convention in mol/L. `CCOc1cccnc1Oc1cccc(-c2cncc(Nc3nccc(O[C@H]4CC[C@H](C(=O)O)CC4)n3)n2)c1` [Example 33, (1r,4r)-4-((2-((6-(3-((3-ethoxypyridin-2-yl)oxy)phenyl)pyrazin-2-yl)amino)pyrimidin-4-yl)oxy)cyclohexane-1-carboxylic acid]: the negative-log IC50 (pIC50) is 5.47.
